Values quoted from earlier work in patent US4239780A, “Phospholipase A2 inhibition” (The Upjohn Company, priority 1979, dated 1980).

Legend:
phospholipase A2 = phospholipase A2 (Naja naja, UniProt P15445); settings: cited from earlier work
[1] = target: phospholipase A2 from venom of Crotalus Adamanteus (Crotalus adamanteus, UniProt P00623); settings: enzyme from Crotalus Adamanteus venom; cited from earlier work
[2] = target: phospholipase A2 from venom of bee (Apis mellifera, UniProt P00630); settings: enzyme from bee venom; cited from earlier work
[3] = test system: phospholipase A2 of rabbit polymorphonuclear leukocytes; settings: cited from earlier work
[4] = target: T1, phospholipase A2 from pig pancreas (Sus scrofa, UniProt P00592); settings: enzyme from pig pancreas; cited from earlier work
T1 construct: host or cells: pig pancreas

[5] = test system: phospholipase A2 derived from perfused guinea pig lung; settings: enzyme derived from perfused guinea pig lung; cited from earlier work

phospholipase A2 from venom of Crotalus Adamanteus, sequence (P00623 17-138 limits assumed): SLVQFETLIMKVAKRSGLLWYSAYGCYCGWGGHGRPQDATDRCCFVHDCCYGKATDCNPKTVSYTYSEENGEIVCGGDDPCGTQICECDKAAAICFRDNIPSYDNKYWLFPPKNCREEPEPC
phospholipase A2 from venom of bee, sequence (P00630 34-167 limits assumed): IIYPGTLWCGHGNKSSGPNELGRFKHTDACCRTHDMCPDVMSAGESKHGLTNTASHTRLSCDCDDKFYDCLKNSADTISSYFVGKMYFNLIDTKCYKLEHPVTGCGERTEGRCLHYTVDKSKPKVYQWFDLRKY
phospholipase A2, sequence (P15445 whole entry, looked up): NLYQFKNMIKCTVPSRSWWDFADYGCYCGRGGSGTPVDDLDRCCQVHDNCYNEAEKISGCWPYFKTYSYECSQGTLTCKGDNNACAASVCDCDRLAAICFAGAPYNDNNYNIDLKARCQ
T1 sequence (P00592 23-146): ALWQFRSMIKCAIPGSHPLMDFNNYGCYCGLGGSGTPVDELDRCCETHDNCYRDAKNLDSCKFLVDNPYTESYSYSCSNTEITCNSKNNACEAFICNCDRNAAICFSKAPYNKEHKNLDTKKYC

**Q.** Which “inhibition of phospholipase A2” value (phospholipase A2) does the source give for `O=C(CBr)c1ccc(Br)cc1` [Bromphenacyl bromide] here?
**A.** inhibit phospholipase A2 by acylating a histadine residue

**Q.** For `COc1ccc2c(c1)c(CC(=O)O)c(C)n2C(=O)c1ccc(Cl)cc1` [indomethacin, Indomethacin], which “inhibition of phospholipase A2” value [1] is on record?
**A.** inactive

**Q.** What about the “inhibition of phospholipase A2” value [2] of the same compound?
**A.** inactive

**Q.** And the “inhibition of phospholipase A2” value [3]?
**A.** inhibit phospholipase A2 of rabbit polymorphonuclear leukocytes in dose dependent fashion

**Q.** And the “inhibition of phospholipase A2” value [4]?
**A.** inactive

**Q.** For `CCN(CC)CCCC(C)Nc1c2ccc(Cl)cc2nc2ccc(OC)cc12` (stereo not drawn) [mepacrine], which “inhibition of phospholipase A2” value [5] is on record?
**A.** inhibits the activity of phospholipase A2
